Test results as given in patent US20100197724A1, “6.5 -PYRROLOPIPERIDINE TACHYKININ RECEPTOR ANTAGONISTS” (priority 2007, published 2010).

Biological target: T1, human neurokinin-1 receptor (NK1R) (Homo sapiens, UniProt P25103)
T1 construct: expressed in transfected cells
Assay: 125I-substance P binding assay of human NK1R expressed in COS or CHO cells
Details: competition with 125I-substance P
Description: Receptor Expression in COS: To express the cloned human neurokinin-1 receptor (NK1R) transiently in COS, the cDNA for the human NK1R was cloned into the expression vector pCDM9 which was derived from pCDM8 (INVITROGEN) by inserting the ampicillin resistance gene (nucleotide 1973 to 2964 from BLUESCRIPT SK+) into the Sac II site. Transfection of 20 ug of the plasmid DNA into 10 million COS cells was achieved by electroporation in 800 ul of transfection buffer (135 mM NaCl, 1.2 mM CaCl2, 1.2 mM MgCl2, 2.4 mM K2HPO4, 0.6 mM KH2PO4, 10 mM glucose, 10 mM HEPES pH 7.4) at 260 V and 950 uF using the IBI GENEZAPPER (IBI, New Haven, Conn.). The cells were incubated in 10% fetal calf serum, 2 mM glutamine, 100 U/ml penicillin-streptomycin, and 90% DMEM media (GIBCO, Grand Island, N.Y.) in 5% CO2 at 37° C. for three days before the binding assay.
Stable Expression in CHO: To establish a stable cell line expressing the cloned human NK1R, the cDNA was subcloned into the vector pRcCMV (INVITROGEN). Transfection of 20 ug of the plasmid DNA into CHO cells was achieved by electroporation in 800 ul of transfection buffer supplemented with 0.625 mg/ml Herring sperm DNA at 300 V and 950 uF using the IBI GENEZAPPER (IBI). The transfected cells were incubated in CHO media [10% fetal calf serum, 100 U/ml penicillin-streptomycin, 2 mM glutamine, 1/500 hypoxanthine-thymidine (ATCC), 90% IMDM media (JRH BIOSCIENCES, Lenexa, Kans.), 0.7 mg/ml G418 (GIBCO)] in 5% CO2 at 37° C. until colonies were visible. Each colony was separated and propagated. The cell clone with the highest number of human NK1R was selected for subsequent applications such as drug screening.
Assay Protocol using COS or CHO: The binding assay of human NK1R expressed in either COS or CHO cells is based on the use of ^125I-substance P (^125I-SP, from DU PONT, Boston, Mass.) as a radioactively labeled ligand which competes with unlabeled substance P or any other ligand for binding to the human NK1R. Monolayer cell cultures of COS or CHO were dissociated by the non-enzymatic solution (SPECIALTY MEDIA, Lavallette, N.J.) and resuspended in appropriate volume of the binding buffer (50 mM Tris pH 7.5, 5 mM MnCl2, 150 mM NaCl, 0.04 mg/ml bacitracin, 0.004 mg/ml leupeptin, 0.2 mg/ml BSA, 0.01 mM phosphoramidon) such that 200 ul of the cell suspension would give rise to about 10,000 cpm of specific ^125I-SP binding (approximately 50,000 to 200,000 cells). In the binding assay, 200 ul of cells were added to a tube containing 20 ul of 1.5 to 2.5 nM of ^125I-SP and 20 ul of unlabeled substance P or any other test compound. The tubes were incubated at 4° C. or at room temperature for 1 hour with gentle shaking. The bound radioactivity was separated from unbound radioactivity by GF/C filter (BRANDEL, Gaithersburg, Md.) which was pre-wetted with 0.1% polyethylenimine. The filter was washed with 3 ml of wash buffer (50 mM Tris pH 7.5, 5 mM MnCl2, 150 mM NaCl) three times and its radioactivity was determined by gamma counter. The activation of phospholipase C by NK1R may also be measured in CHO cells expressing the human NK1R by determining the accumulation of inositol monophosphate which is a degradation product of IP3. CHO cells are seeded in 12-well plate at 250,000 cells per well. After incubating in CHO media for 4 days, cells are loaded with 0.025 uCi/ml of ^3H-myoinositol by overnight incubation. The extracellular radioactivity is removed by washing with phosphate buffered saline. LiCl is added to the well at final concentration of 0.1 mM with or without the test compound, and incubation is continued at 37° C. for […]. Substance P is added to the well at final concentration of 0.3 nM to activate the human NK1R. After 30 min of incubation at 37° C., the media is removed and 0.1 N HCl is added. Each well is sonicated at 4° C. and extracted with CHCl3/methanol (1:1). The aqueous phase is applied to a 1 ml Dowex AG 1X8 ion exchange column. […]

T1 sequence (P25103 whole entry): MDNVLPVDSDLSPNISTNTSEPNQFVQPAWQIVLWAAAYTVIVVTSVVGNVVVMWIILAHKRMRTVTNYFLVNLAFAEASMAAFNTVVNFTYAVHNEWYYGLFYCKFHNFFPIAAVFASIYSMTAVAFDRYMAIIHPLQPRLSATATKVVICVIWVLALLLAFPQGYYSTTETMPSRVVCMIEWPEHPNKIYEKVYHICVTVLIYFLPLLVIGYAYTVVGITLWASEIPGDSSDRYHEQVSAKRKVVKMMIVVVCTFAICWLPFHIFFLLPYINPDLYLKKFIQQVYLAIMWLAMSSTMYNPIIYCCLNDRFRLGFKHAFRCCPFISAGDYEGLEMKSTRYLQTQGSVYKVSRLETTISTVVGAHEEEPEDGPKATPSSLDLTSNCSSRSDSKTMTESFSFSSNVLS

| Structure (SMILES) | IC50 [pM] |
| --- | --- |
| CC(C(=O)N1CC[C@@H]2CN(C3=CC(=O)CC3)CC2[C@@H]1c1ccc(F)cc1)c1cc(C(F)(F)F)cc(C(F)(F)F)c1 (mixture of isomers) [Example 2, 3-[(3aSR,4RS,7aSR)-5-{2-[3,5-bis(trifluoromethyl)phenyl]propanoyl}-4-(4-fluorophenyl)octahydro-2H-pyrrolo[3,4-c]pyridin-2-yl]cyclopent-2-en-1-one] | 250 |
| Cc1ccccc1[C@H]1C2CN(C3=NC(=O)CO3)C[C@H]2CCN1C(=O)N(C)[C@H](C)c1cc(C(F)(F)F)cc(C(F)(F)F)c1 (stereo partly drawn) [Example 12] | 43 |
| Cc1ccccc1[C@H]1[C@@H]2CN(C(C)C)C[C@H]2CCN1C(=O)N(C)[C@H](C)c1cc(C(F)(F)F)cc(C(F)(F)F)c1 [Example 14, (3aS,4R,7aS)-N-{(1R)-1-[3,5-bis(trifluoromethyl)phenyl]ethyl}-2-isopropyl-N-methyl-4-(2-methylphenyl)octahydro-5H-pyrrolo[3,4-c]pyridine-5-carboxamide] | 44 |
| Cc1ccccc1[C@H]1[C@@H]2CN(C(=O)C3CCC(=O)N(C)C3)C[C@H]2CCN1C(=O)N(C)[C@H](C)c1cc(C(F)(F)F)cc(C(F)(F)F)c1 (stereo partly drawn) [Example 19, (3aS,4R,7aS)-N-{(1R)-1-[3,5-bis(trifluoromethyl)phenyl]ethyl}-N-methyl-2-[(1-methyl-6-oxopiperidin-3-yl)carbonyl]-4-(2-methylphenyl)octahydro-5H-pyrrolo[3,4-c]pyridine-5-carboxamide] | 90 |
| Cc1ccccc1[C@H]1C2CN(C3=CC(=O)OC3)C[C@H]2CCN1C(=O)N(C)[C@H](C)c1cc(C(F)(F)F)cc(C(F)(F)F)c1 (stereo partly drawn) [Example 13, (3aS,4R aS)-N-{(1R)-1-[3,5-bis(trifluoromethyl)phenyl]ethyl}-N-methyl-4-(2-methylphenyl)-2-(5-oxo-2,5-dihydrofuran-3-yl)octahydro-5H-pyrrolo[3,4-c]pyridine-5-carboxamide] | 83 |
| Cc1cc(F)ccc1[C@H]1C2CNC[C@H]2CCN1C(=O)N(C)[C@H](C)c1cc(C(F)(F)F)cc(C(F)(F)F)c1 (stereo partly drawn) [Example 26, (3aS,4R,7aS)-N-{(1R)-1-[3,5-bistrifluoromethyl)phenyl]ethyl}-4-(4-fluoro-2-methylphenyl-N-methyloctahydro-5H-pyrrolo[3,4-c]pyridine-5-carboxamide] | 31 |
| Cc1cc(F)ccc1[C@H]1[C@@H]2CN(Cc3ccccc3)C[C@H]2CCN1C(=O)N(C)[C@H](C)c1cc(C(F)(F)F)cc(C(F)(F)F)c1 [Example 25, (3aS,4R,7aS)-2-benzyl-N-{(1R)-1-[3,5-bis(trifluoromethyl)phenyl]ethyl}-4-(4-fluoro-2-methylphenyl)-N-methyloctahydro-5H-pyrrolo[3,4-c]pyridine-5-carboxamide] | 52 |
| CC(=O)N1CC2[C@H](CCN(C(=O)N(C)[C@H](C)c3cc(C(F)(F)F)cc(C(F)(F)F)c3)[C@H]2c2ccccc2C)C1 (stereo partly drawn) [Example 18, (3aS,4R,7aS)-2-acetyl-N{(1R)-1-[3,5-bis(trifluoromethyl)phenyl]ethyl}-N-methyl-4-(2-methylphenyl)octahydro-5H-pyrrolo[3,4-c]pyridine-5-carboxamide] | 68 |
| CC(=O)N1CCC(N2C[C@H]3CCN(C(=O)N(C)[C@H](C)c4cc(C(F)(F)F)cc(C(F)(F)F)c4)[C@@H](c4ccccc4C)[C@@H]3C2)CC1 [Example 22, (3aS,4R,7aS)-2-(1-acetylpiperidin-4-yl)-N-{(1R)-1-[3,5-bis(trifluoromethyl)phenyl]ethyl}-N-methyl-4-(2-methylphenyl)octahydro-5H-pyrrolo[3,4-c]pyridine-5-carboxamide] | 89 |
| CC(=O)N1CCC(N2C[C@H]3CCN(C(=O)N(C)[C@H](C)c4cc(C(F)(F)F)cc(C(F)(F)F)c4)[C@@H](c4ccc(F)cc4C)[C@@H]3C2)CC1 [Example 36, (3aS,4R,7aS)-2-(1-acetylpiperidin-4-yl)-N-{(1R)-1-[3,5-bis(trifluoromethyl)phenyl]ethyl}-4-(4-fluoro-2-methylphenyl)-N-methyloctahydro-5H-pyrrolo[3,4-c]pyridine-5-carboxamide] | 108 |
| Cc1ccccc1[C@H]1[C@@H]2CN(C(=O)C3CCN(C(N)=O)CC3)C[C@H]2CCN1C(=O)N(C)[C@H](C)c1cc(C(F)(F)F)cc(C(F)(F)F)c1 [Example 20, (3aS,4R,7aS)-2-{[1-(aminocarbonyl)piperidin-4-yl]carbonyl}-N-{(1R)-1-[3,5-bis(trifluoromethyl)phenyl]ethyl}-N-methyl-4-(2-methylphenyl)octahydro-5H-pyrrolo[3,4-c]pyridine-5-carboxamide] | 185 |
| Cc1cc(F)ccc1[C@H]1[C@@H]2CN(C(=O)[C@@H](C)O)C[C@H]2CCN1C(=O)N(C)[C@H](C)c1cc(C(F)(F)F)cc(C(F)(F)F)c1 [Example 31, (3aS,4R,7aS)-N-{(1R)-1-[3,5-bis(trifluoromethyl)phenyl]ethyl}-4-(4-fluoro-2-methylphenyl)-2-[(2R)-2-hydroxypropanoyl]-N-methyloctahydro-5H-pyrrolo[3,4-c]pyridine-5-carboxamide] | 57 |
| CC(c1cc(C(F)(F)F)cc(C(F)(F)F)c1)N(C)C(=O)N1CC[C@@H]2CN(C3=CC(=O)CC3)CC2[C@@H]1c1ccc(F)cc1 (stereo partly drawn) [Example 6] | 160 |
| CC(C)(C(=O)N1CC[C@@H]2CN(C3=CC(=O)CC3)C[C@H]2[C@@H]1c1ccc(F)cc1)c1cc(C(F)(F)F)cc(C(F)(F)F)c1 (racemic) [Example 4] | 170 |
| Cc1ccccc1[C@H]1[C@@H]2CN(CC(=O)O)C[C@H]2CCN1C(=O)N(C)[C@H](C)c1cc(C(F)(F)F)cc(C(F)(F)F)c1 [Example 16, [(3aS,4R,7aS)-5-{[{(1R)-1-[3,5-bis(trifluoromethyl)phenyl]ethyl}(methyl)amino]carbonyl}-4-(2-methylphenyl)octahydro-2H-pyrrolo[3,4-c]pyridin-2-yl]acetic acid] | 152 |
